Laboratory results taken from PubChem BioAssay (NCI).
Values joined by “and” are separate entries in the source; they are usually repeats but may differ in a detail not shown here. Equal values may be shown once.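 Growth conditions: 96-well plates. Treatment: test compound, 48 hours, 5 concentrations. Analysis: linear interpolation between bracketing concentrations; unreached endpoints set to highest concentration. The concentration for 50% growth inhibition is given as GI50. TGI: concentration producing complete growth inhibition.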

These compounds were tested on T-47D breast (assay: NCI tumour cell line growth inhibition, 48 h).

SMILES | TGI [µM] | GI50
Nc1nc2[nH]cc(CCc3ccc(C(=O)N[C@@H](CCC(=O)O)C(=O)O)cc3)c2c(=O)[nH]1 | > 100 | –
COC1=CC(=O)C(C2(OC(C)C)OC(=O)C(Cl)=C2Cl)=CC1=O (stereo unspecified) | > 100 | –
CN1CCN(C(=O)COc2ccc(C34CC5CC(CC(C5)C3)C4)cc2)CC1 | 39.2 | 12.9 µM
COc1ccccc1NC(=O)c1cc2cc(Br)ccc2cc1O | 10.7 | 2 µM
O=C(Nc1nn2c(-c3cc(C(F)(F)F)cc(C(F)(F)F)c3)nnc2s1)C1CCCC1 | > 24.6 | 0.375 µM
COC(=O)[C@]12CC[C@@H](C)[C@H](C)[C@@H]1C1=CC[C@@H]3[C@@]4(C)C[C@@H](O)[C@H](O)[C@@](C)(CO)[C@@H]4[C@H](O)C[C@@]3(C)[C@]1(C)CC2 | 29.1 | 7.23 µM
COCCn1cc(-c2nc(-c3cc4cccnc4[nH]3)cs2)c2cc(OC)ccc21 | 0.992 | 0.033 µM
O=[N+]([O-])c1cc([N+](=O)[O-])c(C(F)(F)F)cc1NN=C(c1ccc(O)cc1)c1ccc(O)cc1 | 13.3 | 2.74 µM
c1ccc(Nc2ncc(-c3ccccc3)o2)cc1 | > 25 | > 25 µM
COc1c2ccccc2c(OC)c2[nH]c(=O)ccc12 | > 100 | 21.5 µM
O=C(O)C(Cl)Cl | > 10000 | 4100 µM and > 10000 µM
NC(=S)N/N=C\c1nccc2c(C(F)(F)F)cccc12 | 25.7 | 0.335 µM
CC(=O)N[C@@H](Cc1ccc(OP(=O)(O)O)cc1)C(=O)N[C@H]1CCC(=O)N2CCC[C@@H](C(=O)Nc3cccc4ccccc34)N2C1=O | > 25 | > 25 µM
CN1CCN(c2ccc(Nc3ncc(Cl)c(NC[C@@H]4CCCO4)n3)cc2)CC1 | 58.3 | 5.8 µM

The compounds below were run on SF-268 CNS (assay: NCI tumour cell line growth inhibition, 48 h).

SMILES | GI50 | TGI [µM]
Nc1nc2[nH]cc(CCc3ccc(C(=O)N[C@@H](CCC(=O)O)C(=O)O)cc3)c2c(=O)[nH]1 | 0.219 µM | > 100
COC1=CC(=O)C(C2(OC(C)C)OC(=O)C(Cl)=C2Cl)=CC1=O (stereo unspecified) | – | > 100
CN1CCN(C(=O)COc2ccc(C34CC5CC(CC(C5)C3)C4)cc2)CC1 | 16.4 µM | 39.3
COc1ccccc1NC(=O)c1cc2cc(Br)ccc2cc1O | 3.21 µM | 16.2
O=C(Nc1nn2c(-c3cc(C(F)(F)F)cc(C(F)(F)F)c3)nnc2s1)C1CCCC1 | 1.08 µM | > 100
COC(=O)[C@]12CC[C@@H](C)[C@H](C)[C@@H]1C1=CC[C@@H]3[C@@]4(C)C[C@@H](O)[C@H](O)[C@@](C)(CO)[C@@H]4[C@H](O)C[C@@]3(C)[C@]1(C)CC2 | 12.6 µM | 27.5
COCCn1cc(-c2nc(-c3cc4cccnc4[nH]3)cs2)c2cc(OC)ccc21 | 3.82 µM | > 100
O=[N+]([O-])c1cc([N+](=O)[O-])c(C(F)(F)F)cc1NN=C(c1ccc(O)cc1)c1ccc(O)cc1 | 2.63 µM | 7.66
c1ccc(Nc2ncc(-c3ccccc3)o2)cc1 | > 25 µM | > 25
COc1c2ccccc2c(OC)c2[nH]c(=O)ccc12 | 9.51 µM | > 100
O=C(O)C(Cl)Cl | 4970 µM and > 10000 µM | > 10000
NC(=S)N/N=C\c1nccc2c(C(F)(F)F)cccc12 | 0.27 µM | 21.6
CC(=O)N[C@@H](Cc1ccc(OP(=O)(O)O)cc1)C(=O)N[C@H]1CCC(=O)N2CCC[C@@H](C(=O)Nc3cccc4ccccc34)N2C1=O | > 25 µM | > 25
CN1CCN(c2ccc(Nc3ncc(Cl)c(NC[C@@H]4CCCO4)n3)cc2)CC1 | 1.55 µM | 12.9

What follows are compounds tested on RPMI-8226 leukemia (assay: NCI tumour cell line growth inhibition, 48 h).

SMILES | GI50 [µM] | TGI [µM]
Nc1nc2[nH]cc(CCc3ccc(C(=O)N[C@@H](CCC(=O)O)C(=O)O)cc3)c2c(=O)[nH]1 | > 65.9 | > 100
COC1=CC(=O)C(C2(OC(C)C)OC(=O)C(Cl)=C2Cl)=CC1=O (stereo unspecified) | – | > 100
CN1CCN(C(=O)COc2ccc(C34CC5CC(CC(C5)C3)C4)cc2)CC1 | 2.09 | 5.73
COc1ccccc1NC(=O)c1cc2cc(Br)ccc2cc1O | 1.45 | 4.66
O=C(Nc1nn2c(-c3cc(C(F)(F)F)cc(C(F)(F)F)c3)nnc2s1)C1CCCC1 | 0.368 | > 25.6
COC(=O)[C@]12CC[C@@H](C)[C@H](C)[C@@H]1C1=CC[C@@H]3[C@@]4(C)C[C@@H](O)[C@H](O)[C@@](C)(CO)[C@@H]4[C@H](O)C[C@@]3(C)[C@]1(C)CC2 | 5.18 | 31.3
COCCn1cc(-c2nc(-c3cc4cccnc4[nH]3)cs2)c2cc(OC)ccc21 | 3.94 | > 36.2
